{"source": "patent US20070054848A1", "about": "“Composition and method for nerve regeneration” (priority 2003, published 2007)", "key": {"[1]": {"system": "nerve regeneration", "assay": "Similar experiments with modified amino acid agents (Example 2-8)", "procedure": "Similar experiments were carried out using Pep5 in which alanine was added to the C terminus of the sequence (SEQ ID NO: 2), antibodies for the extracellular domain of p75, and p75 in which alanine was replaced with valine at amino acid 423 in positions 273-427 of SEQ ID NO: 4."}, "[2]": {"target": "T1, p75 (Homo sapiens, UniProt P08138)", "T1 construct": "host or cells: 293T cells (p75)", "T1 sequence (P08138 29-427)": "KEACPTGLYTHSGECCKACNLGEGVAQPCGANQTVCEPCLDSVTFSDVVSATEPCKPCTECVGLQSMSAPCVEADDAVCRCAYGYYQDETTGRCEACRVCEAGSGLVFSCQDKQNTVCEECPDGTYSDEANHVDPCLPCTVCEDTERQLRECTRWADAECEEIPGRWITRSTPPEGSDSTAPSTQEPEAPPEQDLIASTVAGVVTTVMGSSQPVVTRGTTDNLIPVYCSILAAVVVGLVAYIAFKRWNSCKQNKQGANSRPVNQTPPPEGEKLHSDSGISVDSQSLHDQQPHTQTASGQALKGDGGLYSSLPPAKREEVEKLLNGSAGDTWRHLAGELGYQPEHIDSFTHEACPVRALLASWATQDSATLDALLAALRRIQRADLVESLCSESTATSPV", "assay": "Co-precipitation of p75 and Rho GDI with purified recombinant proteins", "type": "binding", "settings": "1 μM GST-Rho GDI and Pep5 at the indicated concentrations"}, "[3]": {"system": "superior cervical ganglion neurons", "type": "cell-based", "settings": "100 ng/ml BDNF; data not shown"}, "[4]": {"system": "hippocampal neurons", "type": "cell-based", "settings": "data not shown"}, "[5]": {"system": "DRG neurons", "assay": "Neurite outgrowth assay, DRG neurons", "type": "cell-based, mice"}, "[6]": {"system": "E12 chick dorsal root ganglia explants", "assay": "Growth cone collapse assay", "type": "cell-based", "settings": "chick E12 DRG explants; myelin 0.1 to 10 ng/μl", "procedure": "Explants of E12 chick dorsal root ganglia were incubated for 24 hours on plastic slides precoated with 100 μg/ml poly-L-lysine, and were treated for 30 minutes with soluble CNS myelin extracts (Sigma) at the indicated concentrations (MAG-Fc (25 μg/ml) or the Nogo peptide (4 μM)). Explants were fixed in 4% (wt/vol) paraformaldehyde, and were stained with fluorescence-labeled phalloidin (Sigma)."}, "[7]": {"system": "DRG neurons from P1 rats", "assay": "Neurite outgrowth assay, dissociated DRG neurons", "type": "cell-based, rat"}, "[8]": {"system": "cerebellar granule neurons from P7 rats", "assay": "Neurite outgrowth assay, cerebellar neurons", "type": "cell-based, rat", "settings": "P7 rat cerebellar granule neurons"}, "[9]": {"system": "RhoA", "assay": "Affinity-precipitation of GTP-RhoA", "type": "cell-based", "settings": "P7 rat cerebellar neurons", "procedure": "Cells were lysed in 50 mM Tris, pH 7.5, 1% Triton X-100, 0.5% sodium deoxycholate, 0.1% SDS, 500 mM NaCl, 10 mM MgCl2, with leupeptin and aprotinin, each at 10 μg/ml (Tang S. et al., J. Cell Biol., 138, 1355-1366 (1997)). Cell lysates were clarified by centrifugation at 13,000 g at 4° C. for 10 min, and the supernatants were incubated with the 20 μg of GST-Rho binding domain of Rhotekin beads (Upstate Biotechnology) at 4° C. for 45 min. The beads were washed 4 times with washing buffer (50 mM Tris, pH 7.5 containing 1% Triton X-100, 150 mM NaCl, 10 mM MgCl2, 10 μg/ml leupeptin, and 10 μg/ml aprotinin). Bound Rho proteins were detected by Western blotting using a monoclonal antibody against RhoA (Santa Cruz Biotechnology).\nTo address this, we measured RhoA activity in the neurons. Using the RhoA-binding domain of the effector protein Rhotekin (Ren, X. D. et al., EMBO J., 18, 578-585 (1999)), the GTP-bound form of RhoA can be affinity-precipitated. […] The PKC inhibitor had no effect on the Rho activity induced by MAG-Fc or the Nogo peptide. Thus, promotion of neurite outgrowth of the cerebellar neurons by inhibition of PKC was not mediated by the block of RhoA activation, showing that PKC is not upstream of RhoA."}, "[10]": {"target": "T2, interaction of p75 with Rho GDI (Mus musculus, UniProt Q9Z0W1)", "T2 construct": "endogenous in cells; host or cells: primary cerebellar neurons from P9 mice", "T2 sequence (Q9Z0W1 32-427)": "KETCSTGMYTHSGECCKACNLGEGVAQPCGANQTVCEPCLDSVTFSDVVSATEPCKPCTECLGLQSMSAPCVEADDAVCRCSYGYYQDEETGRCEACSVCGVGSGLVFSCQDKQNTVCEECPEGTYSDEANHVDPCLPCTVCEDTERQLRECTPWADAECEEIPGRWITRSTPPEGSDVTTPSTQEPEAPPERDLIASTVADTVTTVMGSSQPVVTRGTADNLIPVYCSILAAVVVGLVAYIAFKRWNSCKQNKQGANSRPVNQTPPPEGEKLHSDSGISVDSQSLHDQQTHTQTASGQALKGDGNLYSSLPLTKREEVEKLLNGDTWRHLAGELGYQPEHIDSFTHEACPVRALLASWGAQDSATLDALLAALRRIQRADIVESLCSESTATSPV", "assay": "Co-immunoprecipitation of endogenous p75 and Rho GDI in cerebellar neurons", "type": "cell-based, mice", "settings": "dissociated cerebellar neurons"}, "[11]": {"system": "cerebellar neurons", "assay": "Neurite outgrowth assay, post-natal cerebellar neurons", "type": "cell-based, mice", "settings": "post-natal cerebellar neurons"}, "[12]": {"system": "RhoA", "assay": "Affinity-precipitation of GTP-RhoA in cerebellar neurons", "type": "cell-based, mice", "settings": "post-natal cerebellar neurons; TAT-Pep5 (1 μM)", "procedure": "293 cells were transfected with pcDNA3 vectors containing wild type RhoA whose NH2-terminus is tagged with HA (Yamashita, T. et al., Neuron. 24:585-593, 1999) and/or full-length human p75 by lipofection using Lipofectamine 2000 (Gibco BRL). Cerebellar neurons from P9 mice were isolated as described previously (Cai et. al, Neuron, 22:89-101, 1999). Cells were lysed in 50 mM Tris (pH 7.5), 1% Triton X-100, 0.5% sodium deoxycholate, 0.1% SDS, 500 mM NaCl, 10 mM MgCl2, with leupeptin and aprotinin, each at 10 μg/ml. Cell lysates were clarified by centrifugation at 13,000×g at 4° C. for 10 min, and the supernatants were incubated with the 20 μg of GST-Rho binding domain of Rhotekin beads (Upstate Biotech.) at 4° C. for 45 min. The beads were washed 4 times with washing buffer (50 mM Tris (pH 7.5) containing 1% Triton X-100, 150 mM NaCl, 10 mM MgCl2, 10 μg/ml each of leupeptin and aprotinin). Bound Rho proteins were detected by Western blotting using a monoclonal antibody against RhoA (Santa Cruz Biotechnology).\nAmino-terminally FLAG-tagged human p75 or the deletion mutants of p75 ICD were cloned into pcDNA3.1 expression plasmid, and were transfected with 293T cells. […] Bound Rho proteins were detected by Western blotting using a monoclonal antibody against RhoA (Santa Cruz Biotechnology)."}, "[13]": {"system": "spinal cord", "assay": "Spinal cord injury in rats (dorsal half dissected), BBB score", "type": "in vivo, rat", "settings": "200 g male Wistar rats; continuous osmotic pump to the injured site"}, "[14]": {"system": "spinal cord", "assay": "Similar spinal cord experiments in mice (Example 2-7)", "type": "in vivo"}, "[15]": {"target": "T3, p75 (Mus musculus, UniProt Q9Z0W1)", "T3 construct": "was incubated with lysates prepared from post-natal cerebellum that abundantly express p75; from tissue; host or cells: post-natal cerebellum", "T3 sequence (Q9Z0W1 32-427)": "T2 sequence (Q9Z0W1 32-427)", "assay": "Co-precipitation of p75 with recombinant GST-Pep5", "type": "binding", "settings": "lysates prepared from post-natal cerebellum", "excerpt": "As all the myelin-derived inhibitors of axonal regeneration identified so far act on neurons through p75, intervening with p75 signaling after injury to the central nervous system may alleviate myelin-dependent inhibition of axonal regeneration. […] The specific peptide ligand to the p75 HD was previously obtained from a combinatorial library (Ilag, L. L. et al., Biochem Biophys Res Commun. 255, 104-109 (1999)). This ligand is a 15 amino acid residue peptide (Pep5; […] (SEQ ID NO: 2)) and the binding site was mapped by nuclear magnetic resonance spectroscopy onto a hydrophobic patch framed by helices 5 and 6. […] The present inventors first confirmed whether p75 associates with Pep5. Glutathione S-transferase-fusion protein containing Pep5 (GST-Pep5) was incubated with lysates prepared from post-natal cerebellum that abundantly express p75. […] Therefore, Pep5 has a potential to disrupt the signal mediated by p75 in vitro. As the peptide ligand must gain entry into the cell if it is to act directly on the p75 HD in vivo, the present inventors generated Pep5 fused with the amino-terminal 11 amino acid protein transduction domain (PTD domain) from the human immunodeficiency virus protein, TAT (TAT-Pep5) (Schwarze, S. R., Ho, A., Vocero-Akbani, A. & Dowdy, S. F., Science 285, 1569-1572 (1999)). […] Thus, Pep5 may be used as an inhibitor of Rho GDI association with p75."}, "[16]": {"system": "cerebellar granule neurons", "assay": "Fluorescence Ca2+ imaging (Oregon-green 488BAPTA-1 and Fura Red)", "type": "cell-based", "settings": "p7 rat cerebellar granule neurons"}, "[17]": {"target": "catalytic domain of Rho-kinase (GST-CAT) (Bos taurus, UniProt Q28021)", "sequence (Q28021 6-553 limits assumed)": "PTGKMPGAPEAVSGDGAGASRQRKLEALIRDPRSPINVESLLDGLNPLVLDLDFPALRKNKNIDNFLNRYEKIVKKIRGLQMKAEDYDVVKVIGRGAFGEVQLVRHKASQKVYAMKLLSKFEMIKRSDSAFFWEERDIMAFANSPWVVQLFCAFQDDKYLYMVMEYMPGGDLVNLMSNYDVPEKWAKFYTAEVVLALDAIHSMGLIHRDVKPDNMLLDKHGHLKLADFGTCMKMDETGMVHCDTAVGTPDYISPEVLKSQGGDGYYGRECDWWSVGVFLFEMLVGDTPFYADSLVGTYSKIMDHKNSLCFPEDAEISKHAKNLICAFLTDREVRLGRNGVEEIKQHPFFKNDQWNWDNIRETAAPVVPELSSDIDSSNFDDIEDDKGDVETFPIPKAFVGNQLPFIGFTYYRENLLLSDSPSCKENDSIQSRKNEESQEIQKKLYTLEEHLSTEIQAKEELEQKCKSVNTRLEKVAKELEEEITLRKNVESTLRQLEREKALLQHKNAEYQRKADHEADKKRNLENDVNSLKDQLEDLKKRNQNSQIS", "assay": "In vitro binding assay of p21 and Rho-kinase (GST-CAT)", "settings": "GST-CAT; aa 6-553"}, "[18]": {"system": "spinal cord", "assay": "Spinal cord injury in rats, p21 / TAT-bound p21, BBB score", "type": "in vivo, rat", "settings": "200 g male Wistar rats; osmotic pump for 2 weeks; observed from day 2 for 6 weeks"}}, "note": "“Also recorded” adds a separate entry of the source. Where no end group is shown, it is not given here. The star is where a group is joined. TAT = PTD (protein transduction domain) peptide fused to the peptide; Myristoyl = CCCCCCCCCCCCCC(=O)*", "data": [{"molecule": "Pep5 in which alanine was added to the C terminus: Pep5 in which alanine was added to the C terminus of the sequence (SEQ ID NO: 2) (CFFRGGFFNHNPRYC)", "values": [{"measurement": "nerve regeneration", "setting": "[1]", "result": "nerve regeneration was similarly observed"}]}, {"molecule": "CFFRGGFFNHNPRYC [Pep5]", "values": [{"measurement": "association of p75 with Rho GDI", "setting": "[2]", "result": "inhibited the association of p75 with Rho GDI dose dependently; also recorded: inhibits the binding of p75 with Rho GDI dose dependently"}, {"measurement": "cell death of superior cervical ganglion neurons", "setting": "[3]", "result": "did not inhibit"}, {"measurement": "NGF-induced promotion of the neurite outgrowth", "setting": "[4]", "result": "did not inhibit"}, {"measurement": "neurite outgrowth of neurons which express the short isoform but not the full-length p75", "setting": "[5]", "result": "did not affect the neurite outgrowth"}]}, {"molecule": "PKC inhibitor: cell permeable PKC inhibitor 20-28 (Calbiochem), specific membrane permeable PKC inhibitor peptide (Myristoyl-FARKGALRQ; not fully specified (C-terminus); UniProt P17252 20-28, looked up, fragment)", "values": [{"measurement": "effect on growth cone collapse mediated by myelin", "setting": "[6]", "result": "completely reversed"}, {"measurement": "modulation of MAG-Fc effect on neurite outgrowth", "setting": "[7]", "result": "no modulating effect"}, {"measurement": "neurite outgrowth (substance alone)", "setting": "[8]; MAG-Fc 25 μg/ml, Nogo peptide 4 μM", "result": "no effect on the growth"}, {"measurement": "effect on Rho activity induced by MAG-Fc or the Nogo peptide", "setting": "[9]", "result": "no effect"}]}, {"molecule": "TAT-CFFRGGFFNHNPRYC ({TAT}-CFFRGGFFNHNPRYC; cysteine pairing not given here; also: TAT (PTD) sequence not fixed) [TAT-Pep5, Pep5 fused with the amino-terminal 11 amino acid protein transduction domain from HIV TAT]", "values": [{"measurement": "interaction of p75 with Rho GDI induced by MAG-Fc", "setting": "[10]", "result": "significantly inhibited; also recorded: diminished"}, {"measurement": "inhibitory effect of MAG (25 μg/ml) and the Nogo peptide (4 μM) on neurite outgrowth", "setting": "[11]", "result": "efficiently silenced the inhibitory effect"}, {"measurement": "activation of RhoA induced by MAG-Fc or the Nogo peptide", "setting": "[12]", "result": "inhibited the activation of RhoA; also recorded: completely abolishes these effects"}, {"measurement": "nerve regeneration after spinal cord injury", "setting": "[13]", "result": "nerve regeneration was significantly observed"}, {"measurement": "nerve regeneration", "setting": "[14]", "result": "nerve regeneration was similarly observed"}, {"measurement": "responsiveness of DRG neurons to MAG (25 μg/ml) and the Nogo peptide (4 μM), neurite outgrowth", "setting": "[5]; added exogenously at 100 nM", "result": "abolished their responsiveness"}]}, {"molecule": "GST-Pep5: Glutathione S-transferase-fusion protein containing Pep5", "values": [{"measurement": "co-precipitation of p75", "setting": "[15]", "result": "revealed the presence of a protein corresponding to p75"}]}, {"molecule": "COc1ccc2c(c1)CC[C@@H]1[C@@H]2CC[C@]2(C)[C@@H](NCCCCCCN3C(=O)C=CC3=O)CC[C@@H]12", "note": "[U73122]", "values": [{"measurement": "modulation of neurite outgrowth inhibition by MAG-Fc or the Nogo peptide", "setting": "[8]", "result": "neither PTX nor U73122 modulated"}, {"measurement": "effect on Ca2+ elevation induced by MAG", "setting": "[16]", "result": "blocked"}]}, {"molecule": "p21: Recombinant full-length p21 (1-164 in SEQ ID NO: 23), cyclin-dependent protein kinase inhibitor", "values": [{"measurement": "in vitro interaction with Rho-kinase", "setting": "[17]", "result": "bound to each other in vitro"}, {"measurement": "functional recovery after spinal cord injury (BBB score)", "setting": "[18]", "result": "an effect was not sufficiently observed"}]}]}
